Values quoted from earlier work, collected in patent US10159715B2, “Method for treating diabetes comprising long-acting insulin analogue conjugate and long-acting insulinotropic peptide conjugate” (HANMI PHARM. CO., LTD., priority 2014, dated 2018).

Tests used:
[1] = tested on: type 2 diabetes-induced rodent model
[2] = in vivo

## GLP-1: incretin hormone secreted by L-cells of the ileum and colon; insulinotropic peptide
[1]
  growth and differentiation of the beta cells / beta cell mass: increasing the beta cell mass
[2]
  half-life in blood: less than 2 minutes
